How the values were obtained:
[1] = test system: CC49-TCO-Dox; assay: In vitro Dox release from CC49-TCO-Dox in PBS; format: biochemical
Description: (§1) Doxorubicin (Dox) release from the TCO-linked ADC CC49-TCO-Dox with various TZ activators in PBS and 50% mouse serum at 37° C. was evaluated in vitro as described in Rossin et al. Bioconjug. […] The results of these experiments are depicted in Tables 3 (PBS) and 4 (mouse serum). The release reactions were performed in triplicate unless otherwise stated in the result table.

[2] = test system: CC49-TCO-Dox; assay: In vitro Dox release from CC49-TCO-Dox in 50% mouse serum; format: biochemical
Description: as §1

[3] = In vitro tetrazine stability (decrease of UV absorbance at 520 nm); format: physicochemical; conditions: 10% MeCN/PBS; read-out: In vitro tetrazine stability (h), t1/2 (converted)
Description: The stability of tetrazines was evaluated by dissolving them in 10% MeCN/PBS at 37° C. and following the decrease of the tetrazine UV absorbance at 520 nm in time (Table 4).

[4] = Second-order reaction rate constant with TCO derivative by UV spectroscopy; format: physicochemical; conditions: 25% MeCN/PBS at 20° C.
Description: The second-order reaction rate constants were calculated from the rate at which the absorption at 520 nm (specific for the TZ moiety) decreased (Table 4).

[5] = test system: AVP0458-TCO-MMAE; assay: MMAE release from diabody ADC with D8-MMAE internal standard (LC-SIM-MS); format: biochemical; conditions: 10 equiv of tetrazine, PBS/plasma (1/1), 37° C., after 24 h, n=3
Description: In an alternative method MMAE release from diabody ADC (AVP0458-TCO-MMAE) was determined by using a deuterated internal standard D8-MMAE. ADC (1.1×10^−10 moles bound MMAE) and D8-MMAE (1.1×10^−10 moles) and 10 equiv of tetrazine were incubated in 100 uL PBS/plasma (1/1) at 37° C.

[6] = test system: LS174T tumor-bearing mice; assay: Tumor blocking experiment, mice pretreated with IgG-based ADC CC49-TCO-Dox; format: in vivo, mouse; conditions: CC49-TCO-Dox 5 mg/kg, clearing agent, TZ activator, probe [177Lu]Lu-5.1; compared with the other TZ's
Description: (§2) The animal studies were performed in accordance with the principles established by the revised Dutch Act on Animal Experimentation (1997) and were approved by the institutional Animal Welfare Committee of the Maastricht University and Radboud University Nijmegen. The colorectal cancer (LS174T) mouse model was reported in Rossin et al. Bioconjug. Chem., 2016, 27, 1697-1706.
(§3) To assess the in vivo reaction of TZ activators towards TCO-containing ADCs, tumor blocking experiments were performed as described in Rossin et al., Bioconjug. Chem. 2016, 27, 1697-1706.
A series of 3,6-bisalkyl TZ activators (2.1, 2.2, 2.9, 2.11, 2.12) and 3-alkyl-6-pyridyl TZ activators (3.1, 3.2, 3.4) was tested in tumor-bearing mice (n=3-4) pretreated with an IgG-based ADC (CC49-TCO-Dox, DAR ca. 2) at a 5 mg/kg dose. A clearing agent (galactose-albumin-TZ, Rossin et al., J. Nucl. Med. 2013, 54, 1989-1995) was administered to the mice 24 post-ADC injection followed by the TZ activator (dose 10×: ca. 0.033 mmol/kg; close 100×: ca. 0.335 mmol/kg) 2 h later. One-hour after activation the mice were administered the highly reactive radiolabeled probe [^177Lu]Lu-5.1 (ca. 0.335 μmol/kg, ca. 1.5 MBq/mouse) and were euthanized 3 h later. All injections were performed intravenously. Tumors were harvested and the radioactivity was measured by γ-counting along with standards to determine the % injected dose per gram (% ID/g). […]

[7] = In vitro microsomal stability of TZ activators, human microsomes; format: in vitro ADME; conditions: 5 μM activator, 0.5 mg/mL microsomes, normalized to 100% at t=0, LC-MS
Description: (§4) The in vitro stability of activators 4.11, 4.13, and 4.15 was tested in the presence of human, mouse, rat and cynomolgus microsomes after 30 min incubation (normalized to 100% at t=0). Control samples were incubated with the same concentration of BSA. The activators (5 μM) were incubated in 20 mM phosphate buffer pH 7.4 containing the microsomes (0.5 mg/mL), 1 mM NADP, 5 mM glucose-6-phosphate, 1 U/mL glucose-6-phosphate dehydrogenase, and 2 mM MgCl2 at 37° C. and the measurements were performed by LC-MS. The amount of activator in solution was quantified using calibration curves.

[8] = In vitro microsomal stability of TZ activators, mouse microsomes; format: in vitro ADME; conditions: 5 μM activator, 0.5 mg/mL microsomes, normalized to 100% at t=0, LC-MS
Description: as §4

[9] = In vitro microsomal stability of TZ activators, rat microsomes; format: in vitro ADME; conditions: 5 μM activator, 0.5 mg/mL microsomes, normalized to 100% at t=0, LC-MS
Description: as §4

[10] = In vitro microsomal stability of TZ activators, cynomolgus microsomes; format: in vitro ADME; conditions: 5 μM activator, 0.5 mg/mL microsomes, normalized to 100% at t=0, LC-MS
Description: as §4

[11] = Control incubation with BSA in the microsomal stability test; format: in vitro ADME; conditions: control samples, same concentration of BSA
Description: as §4

[12] = test system: LS174T tumor-bearing mice; assay: Tumor blocking experiment, mice pretreated with diabody-based ADC AVP0458-TCO-MMAE; format: in vivo, mouse; conditions: AVP0458-TCO-MMAE ca. 2 mg/kg, activator 48 h later, probe [111In]In-5.1; compared with the other TZ's
Description: as §2, §3
A series of 3-pyrimidyl-6-alkyl TZ activators (4.1, 4.11, 4.13, 4.15, 4.26, 4.28) was then compared to compound 4.12 in LS174T tumor-bearing mice (n=3-5) pretreated with a diabody-based ADC (AVP0458-TCO-MMAE; DAR=4). The mice were injected the ADC at a ca. 2 mg/kg dose followed 48 h later by the activator (dose 1×: ca. 3.35 μmol/kg; dose 2.5×: ca. […]; dose 5×: ca. 0.017 mmol/kg; dose 10×: ca. 0.033 mmol/kg; dose 100×: ca. 0.335 mmol/kg) and, 1 h post-activator, by the [^111In]In-5.1 probe. Three hours ([…], 4.15) or 24 h (4.26, 4.28) post-probe injection the mice were euthanized and the tumor blocking capacity of the various activators at the administered dose (FIG. 2B) was calculated as reported above.

| SMILES | In vitro Dox release (%) from CC49-Dox at 37° C. in PBS: 1 h ([1]; 1 h) [%] | In vitro Dox release (%) from CC49-Dox at 37° C. in PBS: 2 h ([1]; 2 h) [%] | In vitro Dox release (%) from CC49-Dox at 37° C. in PBS: 3 h ([1]; 3 h) [%] | In vitro Dox release (%) from CC49-Dox at 37° C. in PBS: 24 h ([1]; 24 h) [%] | In vitro Dox release (%) from CC49-Dox at 37° C. in PBS: 48 h ([1]; 48 h) [%] | In vitro Dox release (%) from CC49-Dox at 37° C. in 50% mouse serum: 1 h ([2]; 1 h) [%] | In vitro Dox release (%) from CC49-Dox at 37° C. in 50% mouse serum: 2 h ([2]; 2 h) [%] | In vitro Dox release (%) from CC49-Dox at 37° C. in 50% mouse serum: 3 h ([2]; 3 h) [%] | half-life [3] [h] | reactivity (k2) [4] [M⁻¹ s⁻¹] | induced MMAE release (%) from AVP0458-TCO-MMAE [5] [%] | tumor blocking capacity (FIG. 2A) [6] | In vitro microsomal stability of TZ activators after 30 min incubation at 37° C.: Human [7] [%] | In vitro microsomal stability of TZ activators after 30 min incubation at 37° C.: Mouse [8] [%] | In vitro microsomal stability of TZ activators after 30 min incubation at 37° C.: Rat [9] [%] | In vitro microsomal stability of TZ activators after 30 min incubation at 37° C.: Cynomolgus [10] [%] | In vitro microsomal stability of TZ activators after 30 min incubation at 37° C.: BSA [11] [%] | tumor blocking capacity (FIG. 2B) [12] |
| --- | --- | --- | --- | --- | --- | --- | --- | --- | --- | --- | --- | --- | --- | --- | --- | --- | --- | --- |
| Cc1nnc(C)nn1 [Compound 2.1, 3,6-dimethyl-1,2,4,5-tetrazine] | 76.1 | 78.5 | 78.8 | 80.6 | 81.5 | 64.6 ± 1.0 | 68.7 ± 1.1 | 69.7 ± 1.0 | 14 | 14 | 95 ± 0.4 | perform much worse |  |  |  |  |  |  |
| CN(CCc1nnc(-c2ncccn2)nn1)C(=O)CCCC(=O)NC(CO)(CO)CO [Compound 4.15] |  |  |  |  |  |  |  |  |  |  | 55 ± 0.4 |  | 87.7 | 81.2 | 91.1 | 85.6 ± 0.5 | 87.5 |  |
| Cc1nnc(-c2ncccn2)nn1 [Compound 4.1, 3-methyl-6-(pyrimidin-2-yl)-1,2,4,5-tetrazine, reference compound] |  |  |  |  |  |  |  |  | 10 | 250 | 69 ± 0.0 |  |  |  |  |  |  | perform much worse |

Source: patent publication US20210299286A1, “TETRAZINES FOR HIGH CLICK CONJUGATION YIELD IN VIVO AND HIGH CLICK RELEASE YIELD” (Tagworks Pharmaceuticals B.V., priority 2018, published 2021)
